Data as given in ChEMBL document CHEMBL5154688, “Design, Synthesis, and Characterization of I-BET567, a Pan-Bromodomain and Extra Terminal (BET) Bromodomain Oral Candidate” (J Med Chem, 2022).

Experiments:
[1] = Antineoplastic activity against human NMC 11060 cells xenografted in SCID mouse assessed as reduction in tumor volume at 10 mg/kg, po for 20 days measured at 15 days of post randomization relative to control; assay type: functional; conditions: NMC 11060 cell, 480 h, time 20 day
[2] = AUC(0 to 72 hrs) in KLH-TNP-induced T-cell dependent immunization CD-1 mouse model at 30 mg/kg, po administered every third day for 14 days; assay type: ADME, organism-based; design: dose 30 mg/kg, time 14 day, route po; conditions: in vivo
[3] = Antineoplastic activity against human NMC 11060 cells xenografted in SCID mouse assessed as reduction in tumor volume at 30 mg/kg, po for 20 days measured at 10 days of post randomization relative to control; assay type: functional; conditions: NMC 11060 cell, 480 h, time 20 day
[4] = Antineoplastic activity against human NMC 11060 cells xenografted in SCID mouse assessed as reduction in tumor volume at 30 mg/kg, po for 20 days measured at 3 days of post randomization relative to control; assay type: functional; conditions: NMC 11060 cell, 480 h, time 20 day
[5] = target: T1, Bromodomain-containing protein 4 (Homo sapiens, UniProt O60885); experiment: Inhibition of BRD4 BD2 (unknown origin) incubated for 30 mins in presence of fluorescent ligand by TR-FRET method
[6] = Cmax in KLH-TNP-induced T-cell dependent immunization CD-1 mouse model at 30 mg/kg, po administered daily for 14 days; assay type: ADME, organism-based; design: time 14 day, dose 30 mg/kg, route po; conditions: in vivo
[7] = target: T1, Bromodomain-containing protein 4; experiment: Binding affinity to BRD4 BD1 (unknown origin) assessed as dissociation constant
Cytochrome P450 3A4 = Cytochrome P450 3A4 (Homo sapiens, UniProt P08684); experiment: Inhibition of CYP3A4 (unknown origin); assay type: ADME
[8] = Terminal half life in Beagle dog blood at 3 mg/kg, po or 1.0 mg/kg, iv by LC-MS/MS analysis; assay type: ADME, organism-based, Canis lupus familiaris; conditions: read-out: beta t1/2 (converted)
[9] = Toxicity in KLH-TNP-induced T-cell dependent immunization CD-1 mouse model assessed as tolerability at 30 mg/kg, po administered daily for 14 days; assay type: organism-based; conditions: in vivo, 336 h, time 14 day
[10] = Antineoplastic activity against human NMC 11060 cells xenografted in SCID mouse assessed as reduction in tumor volume at 30 mg/kg, po for 20 days measured at 20 days of post randomization relative to control; assay type: functional; conditions: NMC 11060 cell, 480 h, time 20 day
[11] = Unbound clearance in Wistar Han rat blood at 3 mg/kg, po or 1.3 mg/kg, iv measured upto 24 hrs by LC-MS/MS analysis; assay type: ADME, organism-based; conditions: in vivo
[12] = Unbound volume of distribution at steady state in Beagle dog blood at 3 mg/kg, po or 1.0 mg/kg, iv by LC-MS/MS analysis; assay type: ADME, organism-based, Canis lupus familiaris; conditions: in vivo
[13] = Antineoplastic activity against human NMC 11060 cells xenografted in SCID mouse assessed as reduction in tumor volume at 30 mg/kg, po for 20 days measured at 15 days of post randomization relative to control; assay type: functional; conditions: NMC 11060 cell, 480 h, time 20 day
[14] = target: Bromodomain-containing protein 2 (Homo sapiens, UniProt P25440); experiment: Binding affinity to BRD2 BD2 (unknown origin) assessed as dissociation constant
[15] = Antineoplastic activity against human NMC 11060 cells xenografted in SCID mouse assessed as reduction in tumor volume at 30 mg/kg, po for 20 days measured at 13 days of post randomization relative to control; assay type: functional; conditions: NMC 11060 cell, 480 h, time 20 day
[16] = Cmax in KLH-TNP-induced T-cell dependent immunization CD-1 mouse model at 30 mg/kg, po administered every third day for 14 days; assay type: ADME, organism-based; design: time 14 day, dose 30 mg/kg, route po; conditions: in vivo
[17] = Renal clearance in Beagle dog assessed as ratio/proportion of renal elimination to total clearance at 3 mg/kg, po or 1 mg/kg, iv by LC-MS/MS analysis; assay type: ADME, organism-based, Canis lupus familiaris; conditions: in vivo
[18] = Oral bioavailability in Wistar Han rat blood at 3 mg/kg measured upto 24 hrs by LC-MS/MS analysis; assay type: ADME, organism-based
[19] = Renal clearance in Wistar Han rat at 3 mg/kg, po or 1.3 mg/kg, iv upto 24 hrs by LC-MS/MS analysis; assay type: ADME, organism-based; conditions: in vivo
[20] = Intrinsic clearance in human hepatocytes measured after 120 mins by LC-MS/MS analysis; assay type: ADME, cell-based, Hepatocyte; conditions: 2 h
[21] = Antineoplastic activity against human NMC 11060 cells xenografted in SCID mouse assessed as reduction in tumor volume at 10 mg/kg, po for 20 days measured at 6 days of post randomization relative to control; assay type: functional; conditions: NMC 11060 cell, 480 h, time 20 day
[22] = Antineoplastic activity against human NMC 11060 cells xenografted in SCID mouse assessed as reduction in tumor volume at 10 mg/kg, po for 20 days measured at 20 days of post randomization relative to control; assay type: functional; conditions: NMC 11060 cell, 480 h, time 20 day
[23] = Unbound clearance in Beagle dog blood at 3 mg/kg, po or 1.0 mg/kg, iv by LC-MS/MS analysis; assay type: ADME, organism-based, Canis lupus familiaris; conditions: in vivo
[24] = target: Bromodomain-containing protein 3 (Homo sapiens, UniProt Q15059); experiment: Binding affinity to BRD3 BD2 (unknown origin) assessed as dissociation constant
[25] = Oral bioavailability in Beagle dog blood at 3 mg/kg by LC-MS/MS analysis; assay type: ADME, organism-based, Canis lupus familiaris
[26] = target: Bromodomain testis-specific protein (Homo sapiens, UniProt Q58F21); experiment: Binding affinity to BRDT BD2 (unknown origin) assessed as dissociation constant
[27] = target: Histone acetyltransferase p300 (Homo sapiens, UniProt Q09472); experiment: Binding affinity to EP300 (unknown origin) assessed as dissociation constant
[28] = target: Voltage-gated inwardly rectifying potassium channel KCNH2 (Homo sapiens, UniProt Q12809); experiment: Inhibition of hERG; assay type: toxicity
[29] = Toxicity in KLH-TNP-induced T-cell dependent immunization CD-1 mouse model assessed as effect on body weight at 30 mg/kg, po administered daily for 14 days; assay type: organism-based; conditions: in vivo, 336 h, time 14 day
[30] = Unbound AUC(0 to 24 hrs) in SCID mouse xenografted with human NMC 11060 cells at 3 to 30 mg/kg, po for 20 days; assay type: ADME, organism-based; conditions: in vivo, 480 h, dose 3-30 mg/kg, time 20 day
[31] = Antineoplastic activity against human NMC 11060 cells xenografted in SCID mouse assessed as reduction in tumor volume at 10 mg/kg, po for 20 days measured at 13 days of post randomization relative to control; assay type: functional; conditions: NMC 11060 cell, 480 h, time 20 day

Sequence of Bromodomain-containing protein 3 (Q15059 whole entry): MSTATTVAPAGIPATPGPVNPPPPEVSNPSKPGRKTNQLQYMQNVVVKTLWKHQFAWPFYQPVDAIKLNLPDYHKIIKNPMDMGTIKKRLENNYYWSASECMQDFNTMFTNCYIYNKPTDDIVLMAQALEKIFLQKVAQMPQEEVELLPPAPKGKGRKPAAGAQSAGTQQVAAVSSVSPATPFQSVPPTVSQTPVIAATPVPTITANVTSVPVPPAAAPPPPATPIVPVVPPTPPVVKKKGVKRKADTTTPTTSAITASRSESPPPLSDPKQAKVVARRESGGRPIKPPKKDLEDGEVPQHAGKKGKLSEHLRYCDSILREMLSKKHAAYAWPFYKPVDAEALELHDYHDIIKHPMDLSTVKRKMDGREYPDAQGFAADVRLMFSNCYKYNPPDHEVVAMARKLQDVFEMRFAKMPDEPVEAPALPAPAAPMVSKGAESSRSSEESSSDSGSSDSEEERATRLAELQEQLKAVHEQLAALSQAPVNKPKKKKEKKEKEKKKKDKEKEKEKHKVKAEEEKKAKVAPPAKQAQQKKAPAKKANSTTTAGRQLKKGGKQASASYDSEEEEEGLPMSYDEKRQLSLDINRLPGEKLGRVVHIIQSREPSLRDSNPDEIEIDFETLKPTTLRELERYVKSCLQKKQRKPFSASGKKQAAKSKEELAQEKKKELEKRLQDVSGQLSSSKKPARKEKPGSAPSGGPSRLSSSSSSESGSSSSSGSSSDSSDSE
Sequence of Voltage-gated inwardly rectifying potassium channel KCNH2 (Q12809 whole entry): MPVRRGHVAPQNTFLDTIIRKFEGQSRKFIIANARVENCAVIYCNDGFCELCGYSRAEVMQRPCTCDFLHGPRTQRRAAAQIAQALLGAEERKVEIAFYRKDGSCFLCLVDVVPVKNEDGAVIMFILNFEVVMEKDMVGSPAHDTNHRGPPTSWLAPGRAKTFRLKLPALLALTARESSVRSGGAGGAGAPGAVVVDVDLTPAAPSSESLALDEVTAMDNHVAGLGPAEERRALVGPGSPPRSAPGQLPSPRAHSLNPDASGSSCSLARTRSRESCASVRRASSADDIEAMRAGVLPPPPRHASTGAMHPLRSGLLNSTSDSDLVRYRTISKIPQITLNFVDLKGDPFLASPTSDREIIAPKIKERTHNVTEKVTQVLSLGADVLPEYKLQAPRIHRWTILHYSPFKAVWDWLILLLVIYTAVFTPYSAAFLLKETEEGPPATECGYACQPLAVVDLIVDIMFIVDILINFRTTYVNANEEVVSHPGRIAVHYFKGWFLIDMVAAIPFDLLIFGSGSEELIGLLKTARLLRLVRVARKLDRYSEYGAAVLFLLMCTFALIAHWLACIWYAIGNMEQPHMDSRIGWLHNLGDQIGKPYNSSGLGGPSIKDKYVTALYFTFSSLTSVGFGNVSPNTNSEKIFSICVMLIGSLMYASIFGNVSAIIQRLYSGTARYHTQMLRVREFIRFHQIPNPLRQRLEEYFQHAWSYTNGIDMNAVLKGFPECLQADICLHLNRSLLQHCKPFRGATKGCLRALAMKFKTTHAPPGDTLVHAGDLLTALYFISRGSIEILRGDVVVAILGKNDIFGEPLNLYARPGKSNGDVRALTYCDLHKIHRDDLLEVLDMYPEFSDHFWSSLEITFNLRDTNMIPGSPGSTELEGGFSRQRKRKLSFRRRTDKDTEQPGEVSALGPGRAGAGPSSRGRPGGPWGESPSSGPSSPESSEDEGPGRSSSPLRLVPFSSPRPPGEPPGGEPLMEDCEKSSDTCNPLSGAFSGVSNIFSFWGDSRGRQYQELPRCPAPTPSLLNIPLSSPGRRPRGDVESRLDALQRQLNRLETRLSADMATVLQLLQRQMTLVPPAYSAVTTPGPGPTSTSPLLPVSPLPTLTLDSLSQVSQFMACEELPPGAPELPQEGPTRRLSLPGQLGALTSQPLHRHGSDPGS
Sequence of Cytochrome P450 3A4 (P08684 whole entry): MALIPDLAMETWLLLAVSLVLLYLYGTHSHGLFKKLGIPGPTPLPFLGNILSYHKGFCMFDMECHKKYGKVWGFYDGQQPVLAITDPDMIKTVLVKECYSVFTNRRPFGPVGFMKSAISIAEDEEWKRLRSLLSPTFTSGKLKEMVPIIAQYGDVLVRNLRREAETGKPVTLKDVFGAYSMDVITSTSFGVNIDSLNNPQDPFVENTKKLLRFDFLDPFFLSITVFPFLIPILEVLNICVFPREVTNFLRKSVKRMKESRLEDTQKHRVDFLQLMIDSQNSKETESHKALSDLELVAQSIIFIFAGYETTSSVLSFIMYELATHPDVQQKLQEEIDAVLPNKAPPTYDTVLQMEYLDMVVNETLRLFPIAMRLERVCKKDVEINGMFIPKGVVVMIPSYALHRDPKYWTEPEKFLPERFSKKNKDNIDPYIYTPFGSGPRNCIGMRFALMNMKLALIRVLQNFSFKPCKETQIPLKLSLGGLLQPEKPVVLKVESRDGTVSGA
Sequence of Bromodomain-containing protein 2 (P25440 whole entry): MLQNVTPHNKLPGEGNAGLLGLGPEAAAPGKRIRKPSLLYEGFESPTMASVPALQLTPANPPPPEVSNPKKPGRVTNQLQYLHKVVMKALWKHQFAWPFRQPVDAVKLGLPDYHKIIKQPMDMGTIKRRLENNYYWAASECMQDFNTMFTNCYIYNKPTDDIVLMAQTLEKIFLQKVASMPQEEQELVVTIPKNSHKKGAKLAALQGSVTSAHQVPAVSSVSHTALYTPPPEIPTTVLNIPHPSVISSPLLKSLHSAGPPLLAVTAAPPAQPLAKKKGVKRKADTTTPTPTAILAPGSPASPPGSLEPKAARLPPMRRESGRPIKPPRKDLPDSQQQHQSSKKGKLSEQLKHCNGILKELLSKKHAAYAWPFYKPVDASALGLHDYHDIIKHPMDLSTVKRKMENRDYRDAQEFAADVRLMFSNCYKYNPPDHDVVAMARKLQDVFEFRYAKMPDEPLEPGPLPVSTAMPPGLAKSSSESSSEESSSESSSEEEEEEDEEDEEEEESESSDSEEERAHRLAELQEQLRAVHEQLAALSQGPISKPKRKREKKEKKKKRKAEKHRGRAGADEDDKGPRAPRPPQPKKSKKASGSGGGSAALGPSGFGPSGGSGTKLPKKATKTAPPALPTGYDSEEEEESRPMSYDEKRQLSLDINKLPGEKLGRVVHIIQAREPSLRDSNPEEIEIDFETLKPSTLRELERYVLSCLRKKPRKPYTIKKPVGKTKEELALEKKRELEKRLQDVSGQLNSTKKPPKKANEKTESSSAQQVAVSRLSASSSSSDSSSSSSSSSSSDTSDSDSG

In the case of `CC(=O)N1c2ccc(C(N)=O)cc2[C@H](Nc2ncc(Cl)cn2)C[C@@H]1C`, the inhibition in vivo at 10 mg/kg [1] is reported as 65%, the AUC at 336 h [2] is reported as 34 µM·h and the inhibition in vivo at 30 mg/kg [3] is reported as 83%. It also gave an inhibition in vivo at 30 mg/kg [4] of 44%, an IC50 [5] of 63.1 nM and a Cmax [6] of 8.5 µM. The Kd [7] was 25.1 nM, the IC50 (Cytochrome P450 3A4) was over 39800 nM and the half-life [8] was 1.8 h. For the same molecule, the Activity [9] was “Non-Toxic”, the inhibition in vivo at 30 mg/kg [10] was 93% and the CL free [11] was 109 mL/min/kg. For the same molecule, the Vduss [12] was 2.9 L/kg, the inhibition in vivo at 30 mg/kg [13] was 92% and the Kd [14] was 7.94 nM. The inhibition in vivo at 30 mg/kg [15] was 88%, the Cmax [16] was 8.5 µM and the Ratio [17] was 85%. For the same molecule, the bioavailability [18] was 99%, the CL renal at 24 h [19] was 7 mL/min/kg and the CLH [20] was under 0.87 mL/min/g. For the same molecule, the inhibition in vivo at 10 mg/kg [21] was 54%, the inhibition in vivo at 10 mg/kg [22] was 51% and the CL free [23] was 20 mL/min/kg. It also gave a Kd [24] of 6.31 nM, a bioavailability [25] of 98% and a Kd [26] of 25.1 nM. The Kd [27] was 2510 nM, the IC50 [28] was over 50100 nM and the Activity [29] was “Non-Toxic”. For the same molecule, the fAUC [30] was 10 µM·h and the inhibition in vivo at 10 mg/kg [31] was 56%.
